The text below walks through data of PubChem BioAssay (NCI).

Holding throughout (experiment): DTP human tumour cell line panel, 48 h
Test [1] concerns HCT-15 colon.
The subject of test [2] is SK-MEL-28 melanoma.
Test [3] deals with NCI-H226 lung.
The test system of test [4] is OVCAR-3 ovarian.
Test [5] relates to SF-295 CNS.
In test [6] the test system is NCI/ADR-RES ovarian.
Test [7] relates to OVCAR-4 ovarian.
For test [8], the system named is U251 CNS.
Test [9] deals with HCC-2998 colon.
For test [10], the system named is UACC-257 melanoma.

Several values for one entry are separate records, joined by “and”; a condition that tells them apart may be missing. Equal values may be shown once.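 Following 48 hours of exposure in 96-well plates, responses at five concentrations were used to interpolate endpoints linearly. GI50 = concentration required for 50% inhibition of growth. At the TGI there is no net growth.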

Usually GI50 stands for the concentration giving 50% growth inhibition. By TGI is commonly meant the concentration at which net growth stops. A high value points to lower sensitivity of the cells. Take `CC1=C(CCCOC(=O)[C@H](N)CC(C)C)C2=C(C)C3(CC3)[C@@](C)(O)C(=O)C2=C1`: the GI50 in test [1] is 2.1 µM; in test [2], 2.11 µM; in test [3], 1.89 µM; in test [4], 2.31 µM; in test [5], 2.19 µM; in test [6] it was 2.14 µM. Further, the GI50 in [7] is 1.54 µM; in test [8], 2.53 µM; in test [9] it was 1.78 µM; in test [10], 2.53 µM. Also, the TGI in test [1] was > 100 µM; in test [2], 5.51 µM; in test [3], 6.95 µM; in test [4], 7.6 µM; in test [5] it was > 31.2 µM; in test [6], > 38.8 µM. Besides, the TGI is 21.6 µM in test [7], 13.7 µM in [8], 4.49 µM in test [9] and 6.06 µM in test [10].
Take `CN(C)CCNC(=O)c1cc2c3cc(Cl)ccc3[nH]c2c2ncccc12`: the GI50 is 1.84 µM in test [1]; 2.12 µM in test [2]; 4.04 µM in [3]; 11.1 µM in [4]; 22.8 µM in test [5]; 5.4 µM in test [6]. The GI50 was 4.89 µM in [7], 2.49 µM in test [8] and 3.92 µM in test [10]. Further, the TGI amounted to 4.9 µM in test [1]; 4.18 µM in test [2]; 16.7 µM in test [3]; 29.6 µM in test [4]; 59.6 µM in test [5]; 20.8 µM in test [6]. For the same compound, the TGI came out at 19.6 µM in test [7], 9.45 µM in test [8] and 14.9 µM in test [10].
Turning to `Cn1ncnc1[C@@H]1c2n[nH]c(=O)c3cc(F)cc(c23)N[C@H]1c1ccc(F)cc1`, the GI50 in [1], in [2], in [3], in [4], in test [6] and in [7] was > 100 µM in each case. In addition, in test [9], the GI50 was > 100 µM. The TGI in test [1], in test [2], in [3], in test [4], in test [6] and in [7] was > 100 µM in each case. Besides, the TGI in [9] is > 100 µM.
As for `Cc1c(Cl)cccc1C(=O)Nc1nc2c(s1)CN(C(=O)Nc1cccc(C(F)(F)F)c1)CC2`, the GI50 in test [1] was 0.129 µM; in test [2], 0.985 µM; in test [3], 0.213 µM; in test [4], 0.14 µM; in test [5], 0.125 µM; in [6] it was 0.14 µM. The GI50 was 1.45 µM in test [7], 0.242 µM in [8], 0.647 µM in [9] and 2.21 µM in test [10]. The TGI in [1] was > 50 µM; in [2], > 50 µM; in test [3], 7.65 µM; in [4], 0.539 µM; in [5], > 41.6 µM; in [6] it was 1.01 µM. Moreover, the TGI in test [7] is > 50 µM; in test [8] it was > 50 µM; in [9] it was 8.52 µM; in test [10], > 50 µM.
With `CC[C@@]1(OP(=O)(O)O)C(=O)OCc2c1cc1n(c2=O)Cc2cc3ccccc3nc2-1`, the GI50 in test [2] is 1.86 µM; in test [3], 0.0379 µM; in [4], 0.93 µM; in test [5] it was 0.0249 µM; in test [9] it was 1.57 µM. Also, the TGI in [2] was 57.7 µM; in [3] it was 1.16 µM and 0.66 µM; in test [4], 3.79 µM; in [5], 0.866 µM and 1.97 µM; in test [6], 0.715 µM; in test [7], 6.44 µM and 4.85 µM. Also, the TGI in [8] is 0.747 µM; in [9], 6.06 µM and 8.45 µM; in test [10] it was 2.58 µM and 3.86 µM.
`O=C(NCc1cn(Cc2cccc(Oc3ccccc3)c2)nn1)c1cccnc1Nc1ccc(F)cc1`: the GI50 in test [2] is 7.98 µM; in test [3], 38.6 µM; in test [4], 17.7 µM; in test [5], 5.66 µM; in test [6], 14 µM; in test [7], 23.4 µM. In addition, the GI50 in test [8] is 7.12 µM; in test [9], > 100 µM; in test [10] it was 6.87 µM. Besides, the TGI in test [2] is > 100 µM; in test [3], > 100 µM; in [4] it was > 100 µM; in [5], 47.6 µM; in [6], > 100 µM; in [7] it was > 100 µM. In addition, the TGI in [8], in [9] and in test [10] was > 100 µM throughout.
With `CC(C)=CC[C@@H]1CC2(CC=C(C)C)C(=O)C(OC3(C(=O)c4ccccc4)C(=O)C4(CC=C(C)C)C[C@@H](CC=C(C)C)C(C)(C)C(CC=C(C)C)(C4=O)C3=O)(C(=O)c3ccccc3)C(=O)C(CC=C(C)C)(C2=O)C1(C)C` (some centres not stated), the GI50 in test [1] is 1.41 µM; in test [2], 1.18 µM; in test [3], 1.34 µM; in [4], 1.24 µM; in test [5] it was 1.01 µM; in [6], 1.6 µM. Besides, the GI50 was 1.64 µM in test [8], 1.21 µM in test [9] and 1.4 µM in [10]. Moreover, the TGI in test [1] turned out to be 5.23 µM; in [2], 3.25 µM; in test [3], 3.9 µM; in [4] it was 3.25 µM; in [5], 2.5 µM; in [6], 5.67 µM. The TGI in test [8] was 5.34 µM; in [9], 3.09 µM; in test [10], 3.77 µM.
With `COc1ccc(-c2csc3c2-n2cccc2C3=O)cc1`, the GI50 is 0.0276 µM in test [1]; 0.0174 µM in test [3]; 0.0476 µM in test [5]; 2.58 µM in test [7]; 0.00887 µM in test [8]; 0.232 µM in test [9]. For the same compound, the TGI in test [1] is > 100 µM; in [2], > 100 µM; in test [4], 0.264 µM; in test [5] it was > 75.5 µM; in test [6], > 100 µM; in [7] it was > 100 µM. In addition, the TGI in test [8] was > 100 µM; in test [9] it was 2.56 µM and 5.8 µM.
For `CC(=O)/C(=C\c1ccc(Cl)cc1)c1ccccc1`, the GI50 in [1] was 0.331 µM; in [2], 2.05 µM; in test [3], 2.3 µM; in test [4], 0.0383 µM; in [5], 0.054 µM; in test [6], 2.07 µM. The results for the GI50 in test [7], in [8] and in test [9] were 0.382 µM, 0.0842 µM and 0.328 µM, respectively. For the same compound, the TGI was > 100 µM in test [1]; > 100 µM in test [2]; > 90.1 µM in [3]; 0.229 µM in test [4]; > 100 µM in test [5]; > 100 µM in test [6]. In addition, the TGI was > 100 µM in [7], > 100 µM in test [8] and > 68.9 µM in test [9].
Turning to `C=CC1(C)CCC2C(=CCC3C2(C)CC(O)C(O)C3(C)COC2OC(CO)C(O)C(O)C2O)C1` (configuration not stated), the TGI in [1], in [2], in [3], in test [5], in test [6] and in [7] was > 100 µM in each case. For the same compound, the TGI in [8], in test [9] and in [10] was > 100 µM throughout.
As for `Cn1cc(C2NC(=O)c3ccccc3N2)c2ccccc21` (configuration not stated), the TGI in [1] is 8.48 µM; in test [2], > 100 µM; in test [3], 3.59 µM; in test [4], 2.03 µM; in test [6], 2.49 µM; in test [7], 58.4 µM. Moreover, the TGI in test [8] was 6.27 µM; in test [9] it was 7.45 µM; in test [10], > 100 µM.
As to `C=CCc1cccc(C=O)c1O`, the GI50 is 6.56 µM in test [1]; > 100 µM in test [2]; > 100 µM in test [3]; > 100 µM in [5]; 20.4 µM in [6]; 21.7 µM in test [7]. The GI50 is 6.63 µM in test [8], > 100 µM in [9] and > 100 µM in test [10]. In addition, the TGI in test [1], in test [2], in test [3], in [5], in test [6] and in [7] was > 100 µM throughout. In addition, the concentration for total growth inhibition (TGI) in test [8], in [9] and in test [10] was > 100 µM throughout.
As to `O=C(O)c1ccc(N(/C=C/C(=O)C(F)(F)F)Cc2ccc(Cl)cc2)cc1`, the GI50 in test [1] is 21.4 µM; in test [2] it was 32.9 µM; in test [4] it was 25.8 µM; in test [5], 26.6 µM; in test [6], 23 µM; in [8], 26.2 µM. The GI50 in test [9] is 19.8 µM; in test [10], 30.7 µM. The TGI in test [1] was determined as 59.7 µM; in test [2] it was 84 µM; in test [4], 72.5 µM; in test [5], 67 µM; in test [6] it was 68.4 µM; in test [8] it was 86.7 µM. The values for the TGI in [9] and in test [10] were 44.3 µM and 86.8 µM, respectively.
For `C=C(CO)C(=O)OC1CC(=C)C2CC(O)C(C)C2C2OC(=O)C(=C)C12` (configuration not stated), the TGI in test [1] was 35 µM; in test [2] it was 57.6 µM; in test [4], 34.2 µM; in test [5] it was 38.8 µM; in test [6] it was > 100 µM; in test [7] it was > 100 µM. In addition, the TGI in test [8] is 64.2 µM; in test [9] it was 40.9 µM; in [10] it was 32.7 µM.
As to `O=S(=O)(NCCCNc1cc(-c2cn(-c3ccccc3)nc2-c2cccc(O)c2)ccn1)c1ccc(C(F)(F)F)cc1`, the GI50 is 1.47 µM in test [1]; 1.99 µM in test [2]; 2.31 µM in test [3]; 1.92 µM in [4]; 1.79 µM in test [5]; 2.45 µM in test [6]. Further, the GI50 in test [7] is 1.87 µM; in test [8] it was 1.28 µM; in test [9], 1.92 µM. Besides, the TGI was found to be 3.36 µM in [1]; 4.29 µM in test [2]; 6.25 µM in test [3]; 4.03 µM in [4]; 3.64 µM in test [5]; 7.13 µM in [6]. The TGI is 5.78 µM in test [7], 3.26 µM in test [8] and 3.53 µM in test [9].
For the compound `C[C@@H]1CN2[C@H]3[C@@H]1CC[C@]31CCC(=O)O[C@]1(C)[C@H]1CC[C@H]3CCC=C3[C@@H]12`, the GI50 in test [1], in test [2], in [3], in [4], in test [5] and in test [6] was > 30 µM throughout. Moreover, the GI50 in test [7], in test [8] and in [9] was > 30 µM in each case. The TGI in test [1], in test [2], in test [3], in [4], in test [5] and in [6] was > 30 µM throughout. In addition, the TGI in [7], in test [8] and in test [9] was > 30 µM each time.
Regarding `CNC(=O)Oc1cc(C(C)C)ccc1Sc1ccc(C(C)C)cc1OC(=O)NC`, the GI50 in test [1] was 1.95 µM; in test [2], 4.99 µM; in [3], 10 µM; in test [4] it was 4.39 µM; in test [6], 3.9 µM; in test [8], 3.5 µM. Moreover, the figures for the GI50 in [9] and in test [10] were 12.2 µM and 5.81 µM, respectively. Moreover, the TGI came to 16.1 µM in test [1]; 17.9 µM in test [2]; 25.5 µM in test [3]; 14.7 µM in test [4]; 18.6 µM in test [6]; 15.6 µM in test [8]. Further, the TGI was 27.7 µM in [9] and 20.3 µM in test [10].
